{"source": "patent US6913767B1", "about": "“Compositions for microencapsulation of antigens for use as vaccines” (priority 1993, dated 2005)", "assay": "Stability (intact fraction) of QS21", "type": "physicochemical", "details": "same time (74 days), same conditions", "experimental": "QS21 controls were also run. In RP-HPLC analysis, the rgp120 peak elutes before the QS21 peak and, therefore, this method provides simultaneous quantitation of QS21 and rgp120 released from the microspheres.\nMicrospheres containing QS21, or QS21 with MN rgp120, were incubated in physiological buffer at 37° C. to assess the time for release of the second burst."}
{"substance": "QS21", "values": [{"measurement": "intact QS21 in solution", "value": "less than 25%"}]}
